Laboratory results: patent US20240226127A1, “NUCLEOSIDE COMPOUND AND APPLICATION THEREOF IN THE TREATMENT OF FELINE INFECTIOUS PERITONITIS” (VIGONVITA LIFE SCIENCES CO., LTD., priority 2021, published 2024)
Values after ≈ are worked out from the molar mass of the structure shown.

Tests used:
[1] = tested on: feline infectious peritonitis; assay: Pharmacodynamic experiment on feline infectious peritonitis (subcutaneous aqueous injection); assay type: in vivo; details: cats with feline infectious peritonitis, 2 mg/kg once a day subcutaneous aqueous injection, two weeks; for weight changes of cats before and after treatment: FIG. 1; for number of erythrocytes: FIG. 2; for ratio of Albumin to Globulin (A/G): FIG. 3
Method: 15 mg of compounds 1, 32, and 85 was dissolved separately in 5 mL of solution (water:propylene glycol:PEG=2:1:1) to prepare an injection solution for injection administration. The injection can be stored at room temperature. Use a 2 mL disposable veterinary syringe to draw the corresponding volume of the injection solution and expel air upwards. When injecting, choose a site with soft skin, loose subcutaneous tissue, and fewer blood vessels, such as the neck or medial thigh, for subcutaneous injection. The dosage of administration is 2 mg/kg body weight once a day. Blood samples are collected every three days and blood routine and corresponding biochemical indicators are measured. The end of the experiment is marked when the cat's biochemical indicators return to normal. The indicator data measured in the experiment includes body weight data, erythrocyte data, and data of the ratio of Albumin to Globulin. The experimental subjects for each compound are 15 cats diagnosed with feline infectious peritonitis.

[2] = Solubility test in water (HPLC, external standard method); assay type: physicochemical; details: thermodynamic from solid
Method: Experimental method: Refer to the high-performance liquid chromatography method (Chinese Pharmacopoeia, 2020 Edition, Part Four, General Rule 0512) for determination.
a. Take approximately 1-2 mg of the compound, and place it in a 10 ml volumetric flask. Add lml of water and vigorously shake for 30 seconds every 5 minutes. Observe for 30 minutes. The sample is not completely dissolved. Filter through a 0.45 μm filter membrane, and take the remaining filtrate as the test solution.
b. Take approximately amount of the reference substance, add solvent (DMSO: methanol=10:90) to dissolve and dilute it quantitatively to produce a solution containing 0.1 mg per 1 ml as the reference substance solution.
c. Accurately measure 20 μl of each of the reference substance and test solution, and inject them into the liquid chromatograph respectively. Calculate the peak area according to the external standard method. Calculation formula: […]
In the formula: AT: the main peak area of the test solution; AR: the main peak area of reference substance solution; WR: weighing amount of reference substance solution, mg; VR: dilution volume of reference substance solution, ml; S: content of reference substance solution, %.
d. Chromatographic conditions: Using octadecylsilane bonded silica gel as the filling agent (Welch Ultimate XB-C18, 4.6×150 mm, suitable for 5 um columns). […]

[3] = tested on: Feline Infectious Peritonitis Virus (FIPV); assay: In vitro anti feline infectious peritonitis virus (FIPV) activity in CRFK cells; assay type: cell-based; details: Alphacoronavirus 1, 0.1 MOI FIPV, 72 hours, CellTier-Glo cell viability
Method: Well-growing CRFK cells were inoculated on a 96-well plate. When the cells grow to 80%-90% confluence, 0.1 MOI Feline Infectious Peritonitis Virus (FIPV) and different concentrations of test compounds (0.3125 μM, 0.625 μM, 1.25 μM, 2.5 μM, 5 μM, 10 μM, 20 μM, and 40 μM) were added to each well. Simultaneously set up cell control and virus control with 1% DMSO each well. After being incubated at 37° C. for 72 hours, the cells were treated with CellTier-Glo luminescence assay cell viability detection reagents (Promega, Madison, WI, USA), and the half effective concentration (EC50) of the compounds against virus inhibition was calculated by GraphPad prism 7 software.

solubility at 30 min [2]	SMILES	weight changes of cats before and after treatment [1]	number of erythrocytes [1]	ratio of Albumin to Globulin (A/G) [1]	EC50 [3]
–	CC(=O)OC[C@H]1O[C@@](C#N)(c2ccc3c(N)ncnn23)[C@H](O)[C@@H]1O [Compound 1]	significantly raised	significantly increased	reached normal values	–
–	CN(C)CCN(C)C(=O)OC[C@H]1O[C@@](C#N)(c2ccc3c(N)ncnn23)[C@H](O)[C@@H]1O [Compound 85]	significantly raised	significantly increased	reached normal values	–
50 µg/mL (≈ 172 µM)	N#C[C@@]1(c2ccc3c(N)ncnn23)O[C@H](CO)[C@@H](O)[C@H]1O [GS-441524]	–	–	–	–
–	N#C[C@@]1(c2ccc3c(N)ncnn23)O[C@H](COC(=O)CC(F)(F)F)[C@@H](O)[C@H]1O [Compound 14]	–	–	–	2950 nM
–	CC(C)C(=O)OC[C@H]1O[C@@](C#N)(c2ccc3c(N)ncnn23)[C@H](O)[C@@H]1O [Compound 4]	–	–	–	650 nM
–	N#C[C@@]1(c2ccc3c(N)ncnn23)O[C@H](COC(=O)C2CCCCC2)[C@@H](O)[C@H]1O [Compound 18]	–	–	–	350 nM
–	N#C[C@@]1(c2ccc3c(N)ncnn23)O[C@H](COC(=O)C2CCC2)[C@@H](O)[C@H]1O [Compound 16]	–	–	–	810 nM
–	N#C[C@@]1(c2ccc3c(N)ncnn23)O[C@H](COC(=O)CO)[C@@H](O)[C@H]1O [Compound 32]	significantly raised	significantly increased	reached normal values	6210 nM
